Measurements published in ChEMBL document CHEMBL1141008, “Identification of small molecule agonists of the motilin receptor” (Bioorg Med Chem Lett, 2008).

How the values were obtained:
[1] = Half life in New Zealand White rabbit gastric antrum at 3 uM; format: ADME, tissue-based, Oryctolagus cuniculus, Stomach
Stomach [2] = test: Increase in electric field stimulated contractile response in New Zealand White rabbit gastric antrum at 3 uM pre-incubated for 15 mins; format: functional, Oryctolagus cuniculus
Motilin receptor [3] = biological target: T1, Motilin receptor (Homo sapiens, UniProt O43193); test: Agonist activity at human recombinant motilin receptor expressed in HEK293 cells by calcium mobilization-based FLIPR assay; format: functional, cell-based
Motilin receptor [4] = biological target: T1, Motilin receptor; test: Agonist activity at human recombinant motilin receptor expressed in CHO cells by calcium mobilization-based FLIPR assay; format: functional, cell-based
Motilin receptor [5] = biological target: T1, Motilin receptor; test: Intrinsic activity at human recombinant motilin receptor expressed in CHO cells by calcium mobilization-based FLIPR assay relative to motilin; format: functional, cell-based
Stomach [6] = test: Increase in electric field stimulated contractile response in New Zealand White rabbit gastric antrum at 0.3 uM preincubated for 15 mins; format: functional, Oryctolagus cuniculus
[7] = Half life in New Zealand White rabbit gastric antrum at 0.3 uM; format: ADME, tissue-based, Oryctolagus cuniculus, Stomach
[8] = Half life in New Zealand White rabbit gastric antrum at 10 uM; format: ADME, tissue-based, Oryctolagus cuniculus, Stomach
[9] = Selectivity for human recombinant motilin receptor over ghrelin receptor in FLIPR assay
Stomach [10] = test: Increase in electric field stimulated contractile response in New Zealand White rabbit gastric antrum at 10 uM pre-incubated for 15 mins; format: functional, Oryctolagus cuniculus
[11] = biological target: Growth hormone secretagogue receptor type 1 (Homo sapiens) (UniProt Q92847); test: Activity at ghrelin receptor in human recombinant cells by calcium mobilization-based FLIPR assay
Chain of Growth hormone secretagogue receptor type 1 (Homo sapiens) (Q92847 whole entry, looked up): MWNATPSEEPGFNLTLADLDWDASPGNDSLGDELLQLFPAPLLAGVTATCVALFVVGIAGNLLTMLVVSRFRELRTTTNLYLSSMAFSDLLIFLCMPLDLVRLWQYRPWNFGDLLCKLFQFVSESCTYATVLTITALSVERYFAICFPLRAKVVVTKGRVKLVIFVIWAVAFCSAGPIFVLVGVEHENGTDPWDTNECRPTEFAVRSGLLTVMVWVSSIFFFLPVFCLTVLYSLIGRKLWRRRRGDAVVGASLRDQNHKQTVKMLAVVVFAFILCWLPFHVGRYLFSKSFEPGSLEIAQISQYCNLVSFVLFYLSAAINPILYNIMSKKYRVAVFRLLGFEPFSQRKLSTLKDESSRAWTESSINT

T1 sequence (O43193 whole entry): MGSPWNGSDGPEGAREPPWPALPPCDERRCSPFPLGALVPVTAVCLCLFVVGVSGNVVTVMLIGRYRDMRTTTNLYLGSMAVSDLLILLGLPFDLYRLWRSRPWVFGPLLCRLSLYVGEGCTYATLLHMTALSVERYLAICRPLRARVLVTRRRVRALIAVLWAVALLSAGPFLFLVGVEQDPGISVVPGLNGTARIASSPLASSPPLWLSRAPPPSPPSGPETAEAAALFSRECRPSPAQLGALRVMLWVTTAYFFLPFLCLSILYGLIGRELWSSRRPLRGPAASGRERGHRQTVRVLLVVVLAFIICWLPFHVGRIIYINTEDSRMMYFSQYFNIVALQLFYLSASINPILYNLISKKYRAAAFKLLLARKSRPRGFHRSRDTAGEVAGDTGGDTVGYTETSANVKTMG

EC50 (Motilin receptor [3]) | EC50 (Motilin receptor [4]) | Activity (Motilin receptor [5]) | SMILES | also measured
 |  |  | CC[C@H]1OC(=O)[C@H](C)[C@@H](O[C@H]2C[C@@](C)(OC)[C@@H](O)[C@H](C)O2)[C@H](C)[C@@H](O[C@@H]2O[C@H](C)C[C@H](N(C)C)[C@H]2O)[C@](C)(O)C[C@@H](C)C(=O)[C@H](C)[C@@H](O)[C@]1(C)O [ERYTHROMYCIN] | half-life at 3 µM [1]: 23 min; Activity (Stomach [2]): 490%
501 nM |  |  | COCCCN(Cc1ccccc1-c1ccc(CN2CCNCC2)cc1)C(=O)NC1CCCCC1 | 
631 nM |  |  | COCCCN(Cc1ccccc1-c1ccc(CN2CCNCC2)cc1)C(C)=O | 
 | > 12.6 µM |  | COc1cccc(CCN(Cc2ccccc2-c2ccc(CCN3CCNCC3)cc2)C(=O)NC2CCCCC2)c1 | 
100 nM | 0.0501 µM | 0.9 | COc1cccc(CCN(Cc2ccccc2-c2ccc(CN3CCNCC3)cc2)C(=O)NC2CCCCC2)c1 | 
 |  |  | CC[C@H](C)[C@H](NC(=O)[C@@H]1CCCN1C(=O)[C@@H](NC(=O)[C@@H](N)Cc1ccccc1)C(C)C)C(=O)N[C@@H](Cc1ccccc1)C(=O)N[C@H](C(=O)N[C@@H](Cc1ccc(O)cc1)C(=O)NCC(=O)N[C@@H](CCC(=O)O)C(=O)N[C@@H](CC(C)C)C(=O)N[C@@H](CCC(N)=O)C(=O)N[C@@H](CCCN=C(N)N)C(=O)N[C@@H](CCSC)C(=O)N[C@@H](CCC(N)=O)C(=O)N[C@@H](CCC(=O)O)C(=O)N[C@@H](CCCCN)C(=O)N[C@@H](CCC(=O)O)C(=O)N[C@@H](CCCN=C(N)N)C(=O)N[C@@H](CC(N)=O)C(=O)N[C@@H](CCCCN)C(=O)NCC(=O)N[C@@H](CCC(N)=O)C(=O)O)[C@@H](C)O [MOTILIN] | Activity (Stomach [6]): 506%; half-life at 0.3 µM [7]: 9 min
1000 nM |  |  | COc1cccc(CCN(Cc2ccccc2-c2ccc(CN3CCNCC3)cc2)C(=O)Cc2ccccc2)c1 | 
 | > 12.6 µM |  | COCCCN(Cc1ccccc1-c1ccc(CN2CCCCC2)cc1)C(=O)Cc1ccccc1 | 
 | > 12.6 µM |  | COCCCN(Cc1ccccc1-c1ccc(CN2CCOCC2)cc1)C(=O)Cc1ccccc1 | 
 | 5.01 µM | 0.9 | COc1cccc(CCN(Cc2ccccc2-c2ccc(N3CCNCC3)cc2)C(=O)NC2CCCCC2)c1 | 
631 nM |  |  | COCCCN(Cc1ccccc1-c1ccc(CN2CCNCC2)cc1)S(=O)(=O)c1ccc(F)cc1 | 
 | 0.794 µM | 0.7 | COCCCN(Cc1ccccc1-c1ccc(CN2CCNCC2)cc1)C(=O)Cc1ccccc1 | 
 | 3.16 µM | 0.4 | COCCCN(Cc1ccccc1-c1ccc(CN(C)CCN(C)C)cc1)C(=O)Cc1ccccc1 | 
 |  | 1 | COc1cccc(CCN(Cc2ccccc2-c2ccc(CN3C[C@@H](C)N[C@@H](C)C3)cc2)C(=O)NC2CCCCC2)c1 | half-life at 10 µM [8]: 39 min; fold change (FC) [9]: 10; Activity (Stomach [10]): 182%; EC50 [11]: 126 nM
 | > 3.16 µM |  | COCCCN(Cc1ccccc1-c1ccc(C(=O)N2CCNCC2)cc1)C(=O)Cc1ccccc1 | 
 | > 12.6 µM |  | COCCCN(Cc1ccccc1-c1ccc(CN2CCN(C(C)=O)CC2)cc1)C(=O)Cc1ccccc1 | 
5010 nM |  |  | COc1cccc(CCNCc2ccccc2-c2ccc(CN3CCNCC3)cc2)c1 | 
 | > 12.6 µM |  | COCCCN(Cc1ccccc1-c1ccc(CN2CCN(C)CC2)cc1)C(=O)Cc1ccccc1 | 
1580 nM |  |  | O=C(NC1CCCCC1)N(CCc1ccccc1)Cc1ccccc1-c1cccc(CN2CCNCC2)c1 | 
 | 0.398 µM | 0.6 | COc1cccc(CCN(Cc2ccccc2-c2ccc(CC3CCNCC3)cc2)C(=O)NC2CCCCC2)c1 | 
